Experimental data from patent publication US20060211703A1, “Substituted alkyl-pyridazinones for the treatment of memory and learning malfunctions” (priority 2003, published 2006).
Entries after “also recorded” stand apart in the source; their conditions may differ.

Tests used:
Male Wistar rats = assay: step through-type passive avoidance learning test; type: in vivo, rat; settings: 30 min before test, FIG. 1
Description: Male Wistar rats weighing 200-220 g were used. The animals were obtained from Charles River Co. They were kept in a room with normal 12-12 h light dark cycle (light on: 06:00) at relative humidity of 60±10%.
The experiment was performed in a five-channel “step through”-type passive avoidance learning apparatus. The equipment consisted of to adjacent Plexi-glass box of 20×20×16 cm. One of them was made of regular transparent Plexi-glass and the other one was made of black, non-transparent Plexi-glass. The boxes were connected with a 7.5×8 cm passageway, equipped with a computer-controlled guillotine-door. The passage of the rats through the door was detected by infrared photocells arranged in two parallel lines in the opening of the passageway. The door was automatically closed when the animals passed through. The dark compartment was equipped with stainless steel grid floor through which electric foot shocks could have been delivered to the animals. […]
The individually numbered animals were placed into the light compartment of the equipment. […] Step through latency was automatically determined. […]
After 24 h the animals were placed again in the light compartment of the test apparatus and step-through latency was measured as described at Acquisition day, except that no foot shock was applied to the animals in any group on the second day. […]

[1] = known anxiolytic compounds, comparison statement; cited from earlier work

| Compound | step-through latency into the dark compartment (effect on acquisition / learning) (Male Wistar rats; 1 mg/kg ip. at Day 1 (Acquisition), latency measured at Day 2, vs shocked vehicle control) | step-through latency into the dark compartment (effect on recall / long term memory) (Male Wistar rats; 1 mg/kg ip. at Day 2 (Retention), vs shocked vehicle control) | effect on memory [1] |
| --- | --- | --- | --- |
| O=c1cc(NCCN2CCN(c3cccc4c3OCCO4)CC2)cn[nH]1 [compound A, 5-[2-[4-(2,3-dihydro-benzo[1,4]dioxine-5-yl)-piperazine-1-yl]-ethylamine]-2H-pyridazine-3-one] | significantly increased; also recorded: further increased | significantly increased |  |
| CN1C(=O)CN=C(c2ccccc2)c2cc(Cl)ccc21 [diazepam] |  |  | deleterious |
